{"source": "ChEMBL document CHEMBL1142142", "about": "“Synergistic activities of azithromycin and amphotericin B against Naegleria fowleri in vitro and in a mouse model of primary amebic meningoencephalitis” (Antimicrob Agents Chemother, 2007)", "key": {"Mus musculus [1]": {"tested_on": "Mus musculus", "test": "Effect on mean time to death in Naegleria fowleri Lee (M67) infected CD1 mouse at 2.5 mg/kg, ip in presence of azithromycin", "format": "functional, organism-based", "parameters": "dose 2.5 mg/kg"}, "Mus musculus [2]": {"tested_on": "Mus musculus", "test": "Protection against Naegleria fowleri Lee (M67) infection in CD1 mouse at 2.5 mg/kg/day, ip", "format": "functional", "conditions": "route intraperitoneal"}, "Mus musculus [3]": {"tested_on": "Mus musculus", "test": "Protection against Naegleria fowleri Lee (M67) infection in CD1 mouse at 2.5 mg/kg, ip in presence of azithromycin", "format": "functional", "conditions": "route intraperitoneal"}, "Naegleria fowleri [4]": {"tested_on": "Naegleria fowleri", "test": "Antimicrobial activity against Naegleria fowleri Lee (M67) at day 2", "format": "functional, organism-based", "conditions": "48 h"}, "Naegleria fowleri [5]": {"tested_on": "Naegleria fowleri", "test": "Antimicrobial activity against Naegleria fowleri Lee (M67) at day 3", "format": "functional, organism-based", "conditions": "72 h"}, "Naegleria fowleri [6]": {"tested_on": "Naegleria fowleri", "test": "Antimicrobial activity against Naegleria fowleri Lee (M67) in presence of amphotericin B at 1:3 ratio on day 2", "format": "functional"}, "Naegleria fowleri [7]": {"tested_on": "Naegleria fowleri", "test": "Antimicrobial activity against Naegleria fowleri Lee (M67) in presence of amphotericin B at 1:1 ratio on day 2", "format": "functional"}, "Naegleria fowleri [8]": {"tested_on": "Naegleria fowleri", "test": "Antimicrobial activity against Naegleria fowleri Lee (M67) in presence of amphotericin B at 3:1 ratio on day 2", "format": "functional"}, "Naegleria fowleri [9]": {"tested_on": "Naegleria fowleri", "test": "Antimicrobial activity against Naegleria fowleri Lee (M67) in presence of amphotericin B at 1:3 ratio on day 3", "format": "functional"}, "Naegleria fowleri [10]": {"tested_on": "Naegleria fowleri", "test": "Antimicrobial activity against Naegleria fowleri Lee (M67) in presence of amphotericin B at 1:1 ratio on day 3", "format": "functional"}, "Naegleria fowleri [11]": {"tested_on": "Naegleria fowleri", "test": "Antimicrobial activity against Naegleria fowleri Lee (M67) in presence of amphotericin B at 3:1 ratio on day 3", "format": "functional"}, "Mus musculus [12]": {"tested_on": "Mus musculus", "test": "Effect on mortality in Naegleria fowleri Lee (M67) infected CD1 mouse at 2.5 mg/kg/day, ip", "format": "functional", "conditions": "route intraperitoneal"}, "Mus musculus [13]": {"tested_on": "Mus musculus", "test": "Effect on mortality in Naegleria fowleri Lee (M67) infected CD1 mouse at 2.5 mg/kg, ip in presence of azithromycin", "format": "functional", "conditions": "route intraperitoneal"}, "Mus musculus [14]": {"tested_on": "Mus musculus", "test": "Effect on mean time to death in Naegleria fowleri Lee (M67) infected CD1 mouse at 2.5 mg/kg/day, ip", "format": "functional", "conditions": "route intraperitoneal"}, "Mus musculus [15]": {"tested_on": "Mus musculus", "test": "Protection against Naegleria fowleri Lee (M67) infection in CD1 mouse at 25 mg/kg/day, ip", "format": "functional", "conditions": "route intraperitoneal"}, "Naegleria fowleri [16]": {"tested_on": "Naegleria fowleri", "test": "Antimicrobial activity against Naegleria fowleri Lee (M67) in presence of azithromycin at 1:3 ratio on day 2", "format": "functional"}, "Naegleria fowleri [17]": {"tested_on": "Naegleria fowleri", "test": "Antimicrobial activity against Naegleria fowleri Lee (M67) in presence of azithromycin at 1:1 ratio on day 2", "format": "functional"}, "Naegleria fowleri [18]": {"tested_on": "Naegleria fowleri", "test": "Antimicrobial activity against Naegleria fowleri Lee (M67) in presence of azithromycin at 3:1 ratio on day 2", "format": "functional"}, "Naegleria fowleri [19]": {"tested_on": "Naegleria fowleri", "test": "Antimicrobial activity against Naegleria fowleri Lee (M67) in presence of azithromycin at 1:3 ratio on day 3", "format": "functional"}, "Naegleria fowleri [20]": {"tested_on": "Naegleria fowleri", "test": "Antimicrobial activity against Naegleria fowleri Lee (M67) in presence of azithromycin at 1:1 ratio on day 3", "format": "functional"}, "Naegleria fowleri [21]": {"tested_on": "Naegleria fowleri", "test": "Antimicrobial activity against Naegleria fowleri Lee (M67) in presence of azithromycin at 3:1 ratio on day 3", "format": "functional"}, "Mus musculus [22]": {"tested_on": "Mus musculus", "test": "Effect on mortality in Naegleria fowleri Lee (M67) infected CD1 mouse at 25 mg/kg/day, ip", "format": "functional", "conditions": "route intraperitoneal"}, "Mus musculus [23]": {"tested_on": "Mus musculus", "test": "Effect on mean time to death in Naegleria fowleri Lee (M67) infected CD1 mouse at 25 mg/kg/day, ip", "format": "functional", "conditions": "route intraperitoneal"}}, "note": "Active and inactive are the calls of the source. The rule behind the calls is not given here.", "data": [{"smiles": "C[C@@H]1[C@H](O)[C@@H](C)/C=C/C=C/C=C/C=C/C=C/C=C/C=C/[C@H](O[C@@H]2O[C@H](C)[C@@H](O)[C@H](N)[C@@H]2O)C[C@@H]2O[C@](O)(C[C@@H](O)C[C@@H](O)[C@H](O)CC[C@@H](O)C[C@@H](O)CC(=O)O[C@H]1C)C[C@H](O)[C@H]2C(=O)O", "note": "[AMPHOTERICIN B]", "values": [{"measurement": "Activity", "setting": "Mus musculus [1]", "value": "Active"}, {"measurement": "Activity", "setting": "Mus musculus [2]", "value": 27, "unit": "%"}, {"measurement": "Activity", "setting": "Mus musculus [3]", "value": 100, "unit": "%"}, {"measurement": "IC50", "setting": "Naegleria fowleri [4]", "value": 0.0264, "unit": "µM"}, {"measurement": "IC50", "setting": "Naegleria fowleri [5]", "value": 0.0183, "unit": "µM"}, {"measurement": "FIC50", "setting": "Naegleria fowleri [6]", "value": 0.311}, {"measurement": "FIC50", "setting": "Naegleria fowleri [7]", "value": 0.241}, {"measurement": "FIC50", "setting": "Naegleria fowleri [8]", "value": 0.254}, {"measurement": "FIC50", "setting": "Naegleria fowleri [9]", "value": 0.167}, {"measurement": "FIC50", "setting": "Naegleria fowleri [10]", "value": 0.309}, {"measurement": "FIC50", "setting": "Naegleria fowleri [11]", "value": 0.303}, {"measurement": "Activity", "setting": "Mus musculus [12]", "value": 55, "unit": "%"}, {"measurement": "Activity", "setting": "Mus musculus [13]", "value": 0, "unit": "%"}, {"measurement": "Activity", "setting": "Mus musculus [14]", "value": 7, "unit": "days"}]}, {"smiles": "CC[C@H]1OC(=O)[C@H](C)[C@@H](O[C@H]2C[C@@](C)(OC)[C@@H](O)[C@H](C)O2)[C@H](C)[C@@H](O[C@@H]2O[C@H](C)C[C@H](N(C)C)[C@H]2O)[C@](C)(O)C[C@@H](C)CN(C)[C@H](C)[C@@H](O)[C@]1(C)O", "note": "[AZITHROMYCIN]", "values": [{"measurement": "Activity", "setting": "Mus musculus [15]", "value": 40, "unit": "%"}, {"measurement": "IC50", "setting": "Naegleria fowleri [4]", "value": 0.0026, "unit": "µM"}, {"measurement": "IC50", "setting": "Naegleria fowleri [5]", "value": 0.0031, "unit": "µM"}, {"measurement": "FIC50", "setting": "Naegleria fowleri [16]", "value": 0.464}, {"measurement": "FIC50", "setting": "Naegleria fowleri [17]", "value": 0.238}, {"measurement": "FIC50", "setting": "Naegleria fowleri [18]", "value": 0.088}, {"measurement": "FIC50", "setting": "Naegleria fowleri [19]", "value": 0.55}, {"measurement": "FIC50", "setting": "Naegleria fowleri [20]", "value": 0.308}, {"measurement": "FIC50", "setting": "Naegleria fowleri [21]", "value": 0.103}, {"measurement": "Activity", "setting": "Mus musculus [22]", "value": 45, "unit": "%"}, {"measurement": "Activity", "setting": "Mus musculus [23]", "value": 12.4, "unit": "days"}]}]}
